Test results: ChEMBL document CHEMBL1201862, “PubChem BioAssay data set” (2004)
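Dose response: 5 concentrations. Exposure: 48 h. Format: 96-well plates. Endpoint: linear interpolation; highest concentration if not reached. Here, GI50 denotes the concentration required for 50% inhibition of growth.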 The source made the active and inactive calls. Rule as the data show it: active = GI50 up to about 1.1 µM and inactive = higher.

Experiments:
Assay in all cases: NCI anticancer screen, dose series, 48 h
[1] = test system: DMS-114
[2] = test system: KM-20L2
[3] = test system: RXF 631
[4] = test system: Hs-578T
[5] = test system: DLD-1
[6] = test system: DMS-273
[7] = test system: BT-549
[8] = test system: M19-MEL
[9] = test system: HOP-18

Measured: GI50

Cn1c2c(c3ccccc31)CCN(CCCCN1CCN(c3ccccc3)CC1)C2=O
inactive: [1] 22.1 µM | [2] 4.29 µM | [3] 9.66 µM | [4] 12.4 µM | [5] 19.3 µM | [6] 31.4 µM | [7] 6.58 µM | [8] 43.6 µM | [9] > 31.6 µM
